This is an account of results in patent US8975234B2, “Anti-bacterial infection, inflammation, and leukemia composition and use thereof” (priority 2011, dated 2015).

Data set [1] deals with Heme oxygenase-1 (HO-1) in RAW264.7 cells. Description: Western blot analysis of Heme oxygenase-1 (HO-1). It counts as cell-based, mouse. Particulars: 25 or 50 μM with LPS, 24 hours. Here is the method: The murine macrophage RAW264.7 cells were plated in 6 cm cell dishes at a seeding density of 5×10^6 cells/mL and incubated overnight. After overnight incubation, cells were treated with different concentrations of Tellimagrandin II (10, 25 and 50 μM) and LPS and incubated for 24 hours. Cells were washed twice with PBS, scraped and lysed on ice in RIPA buffer, and proteins were obtained. Heme oxygenase-1 expression was analyzed by Western blotting of the whole cell lysates. […] In FIG. 12, the first bar represents the control group, the second bar represents the test group with LPS only and the third, the fourth and fifth bars represent the test groups with 10, 25 and 50 […] Tellimagrandin II (N=3, Mean±SD).

Data set [2] deals with Staphylococcus aureus biofilm formation. Description: Biofilm formation. It counts as cell-based. Particulars: 40 μg/mL Tellimagrandin II. As for the experimental part: Bacteria was grown overnight (16˜18 hours) on agar plate. Then, collected and re-suspended in 0.45% sterile PBS and diluted in sterile PBS to final optical density at 600 nm (OD600) of 0.1. Polystyrene 96-well microtitre plates were filled with 150 μL of culture medium and 20 μL of bacterial solution per well. The cultures were allowed to stand at 37° C. for 18 hours. After the incubation period, cultures were removed, and microtitre plate wells were gently washed three times with 300 μL of sterile PBS to remove loosely associated bacteria, then dried at 60° C. oven for 1 hour. Samples were stained by the addition of the 2% dye solution (150 μL) to each well above the initial inoculation level and incubated for 15 minutes. The plate was then washed in fresh water. The intensity of staining was measured after the addition of 95% alcohol (150 μL) to each dry well. The samples were incubated at room temperature for 30 min, after which the OD517 values were measured on a plate reader.
Optical density cut-off value (ODc)=average OD of negative control+3× standard deviation (SD) of negative control (The interpretation of biofilm production was done according to the criteria of Srdjan et al. (APMIS 115: 891-9, 2007). MRSA 17199 were used as control strain.

The test system of data set [3] is penicillin-binding protein 2a (PBP2a). Description: Western blotting analysis of PBP2a expression. It counts as cell-based, Staphylococcus aureus. Conditions: 40 μg/mL alone. As for the experimental part:
Protein samples (15 μg) were mixed with 5× Sample buffer and boiled in 1× Sample buffer for 5 min and then cooled quickly that proteins be denatured to their constituent polypeptide chains. Equal amounts of protein (15 μg) were separated on 10% SDS-PAGE at 17 mA for 2 hours, and transferred to PVDF membrane using wet transfer procedure. The PVDF membrane was blocked for half hour at room temperature in t-BST buffer containing 5% (w/v) non-fat dry milk to prevent nonspecific binding then probed with primary antibodies (Rabbit-anti-penicillin binding protein, dilution 1:5000) in 5% non-fat dry milk for 16˜18 hours at 4° C. Anti-Groel was used as internal controls (dilution 1:80,000; purchased from Sigma). After washing with t-BST three times for 5 minutes each, the membrane was incubated for half hour at room temperature with horseradish peroxidase (HRP)-conjugated secondary antibodies in 5% (w/v) non-fat dry milk. The membrane was washed three times for 5 minutes each, followed by using an enhanced chemiluminescence system and exposed to film.
(A western blot detects proteins with antibodies after separation by electrophoresis.)

The subject of data set [4] is human embryonic kidney cell line HEK 293. Description: Cell viability assay (alamarBlue). Particulars: 40 μg/mL, 24 hours. It counts as cell-based. Here is the method: (§1) Cell viability was measured using alamarBlue. For cell viability assays, human embryonic kidney cell line HEK 293 and human hepatoma cell line Hep G2 were plated 180 μL in each well on a 96-well plate (for HEK 293, at a density of about 10,000 cells/well; for Hep G2, at a density of about 7500 cells/well). The cells were grown overnight (16˜18 hours) and left to attach. After overnight incubation, 20 μL of Tellimagrandin II was added to give final concentrations of 0, 20, 30, 40 and 50 μg/mL. The cultures with 0 μg/mL Tellimagrandin II and without adding additional drug (medium only) were as controls. The cells are then incubated in a 5% CO2, 37° C. incubator for 24 hours. After 24 hours, 100 μL of alamarBlue was added to each well, and cultured in a 5% CO2, 37° C. incubator for 4 hours. Absorbance was monitored at 570 nm and 600 nm and cell viability was determined.
A general note: Resazurin is reduced to fluorescent resorufin, in cell work by metabolically active cells.

Data set [5] has as its system human hepatoma cell line Hep G2. Description: Cell viability assay (alamarBlue). Conditions: 40 μg/mL, 24 hours. It counts as cell-based. Here is the method: as §1
The test system of data set [6] is bacteria. Description: Transmission electron microscopy of treated bacteria. It counts as cell-based. Particulars: 40 μg/mL; cultured for 10 minutes; compared with control group. As for the experimental part: Before observed by TEM, the bacteria were cultured overnight on plate, collected and suspended in either 10 mL MHB or 10 mL MHB containing 40 μg/mL Tellimagrandin II. The bacterial solution were diluted to an optical density at 600 nm (OD600) of 0.1, and cultured for 10 minutes or 24 hours. Then, the cells were centrifuged at 10,000 rpm/min and suspended in the fixing fluid, the fixed time can not exceed 24 hours. The sample for TEM was sent to departments of Laboratory Medicine and Clinical Research, Kaohsiung Medical University Hospital (Kaohsiung, Taiwan, ROC).

Data set [7] relates to mouse macrophage cell line RAW264.7. Description: Cell viability assay (alamarBlue). It counts as cell-based. Conditions: 50 μg/mL or lower doses, 24 hours. Here is the method:
AlamarBlue reagent was used to assess cell viability. RAW264.7 cells (2×10^4 in 200 μL of medium) were seeded on the 96-well plate. After overnight incubation, cells were serum starved in DMEM medium containing 2% Fetal Bovine Serum (FBS) for 3 hours. There were several groups: cells without DMSO or Tellimagrandin II treatment (controls); cell treated with DMSO (control); cells treated with Tellimagrandin II with different concentrations (10, 25, 50, 75 and 100 μM, diluted in DMSO) (test groups). Each group was determined in duplicate.
After 24 hours, the cell medium was removed and discarded, and the cells were resuspended with 180 μL of fresh culture medium. Each cell suspension was added with 20 μL alamarBlue. The plate was then placed in incubator for another 4 hours. After incubation, the absorbance of the medium was measured at 570 and 600 nm, and cell viability was analyzed by using the following formula:
[formula] • O1: molar extinction coefficient (E) of oxidized alamarBlue at 570 nm • O2: molar extinction coefficient (E) of oxidized alamarBlue at 600 nm • A1: absorbance of test wells at 570 nm • A2: absorbance of test wells at 600 nm • P1: absorbance of positive growth control well at 570 nm • P2: absorbance of positive growth control well at 600 nm

As to `O=C(OC1O[C@@H]2COC(=O)c3cc(O)c(O)c(O)c3-c3c(cc(O)c(O)c3O)C(=O)O[C@H]2[C@H](OC(=O)c2cc(O)c(O)c(O)c2)[C@H]1OC(=O)c1cc(O)c(O)c(O)c1)c1cc(O)c(O)c(O)c1` (stereo partly drawn) [Tellimagrandin II], the “Heme oxygenase-1 expression” value in data set [1] was “significant increases”. For the same molecule, in data set [2] (ODc 0.167), the “OD (average OD value of the strain − ODc)” value amounted to 0.039. Besides, the “Average OD value” in data set [2] (biofilm staining of strain) was determined as 0.206. In addition, the “Absorbance 1” value in data set [2] (biofilm staining of strain, replicate 1) was 0.153. In addition, the “Absorbance 2” value in data set [2] (biofilm staining of strain, replicate 2) came to 0.259. Further, the “Absorbance 3” value in data set [2] (biofilm staining of strain, replicate 3) worked out at 0.167. In addition, in data set [2] (biofilm staining of strain, replicate 4), the “Absorbance 4” value was 0.246. Moreover, the “expression of penicillin-binding protein 2a (PBP2a)” value in data set [3] was “inhibit the expression”. Further, the figures for the Cell viability entry in data set [4], in data set [5] and in data set [7] were “at least 80%”, “at least 80%” and “not affected significant”, respectively. The “phenotype of bacteria in electron microscopy” value in data set [6] is reported as “unsmooth tooth surfaces”.
